Results published in paper PMC9898036, “VIP152 is a selective CDK9 inhibitor with pre-clinical in vitro and in vivo efficacy in chronic lymphocytic leukemia” (Leukemia, 2022).

Assays:
[1] = target: CDK9 in complex with Cyclin T2 (Homo sapiens, UniProt P50750); assay: NanoBRET target engagement assay (HEK293); type: cell-based
Bradykinin B2 = Bradykinin B2 (Homo sapiens, UniProt P30411); assay: Eurofins Diversity Panel; type: binding; conditions: hum, Conc. 10 μM
Muscarinic M2 = Muscarinic M2 (Homo sapiens, UniProt P08172); assay: Eurofins Diversity Panel; type: binding; conditions: hum, Conc. 10 μM
Muscarinic M3 = Muscarinic M3 (Homo sapiens, UniProt P20309); assay: Eurofins Diversity Panel; type: binding; conditions: hum, Conc. 10 μM
Nicotinic Acetylcholine = assay: Eurofins Diversity Panel; type: binding, human; conditions: hum, Conc. 10 μM
Opiate μ(OP3, MOP) = Opiate μ(OP3, MOP) (Homo sapiens, UniProt P35372); assay: Eurofins Diversity Panel; type: binding; conditions: hum, Conc. 10 μM
PFCDPK1(P.falciparum) = PFCDPK1(P.falciparum) (Plasmodium falciparum, UniProt P62344); assay: DiscoverX KINOMEscan kinase profiling: PFCDPK1(P.falciparum); type: binding; conditions: PFCDPK1(P.falciparum) (Entrez CDPK1); 100 nM; read-out: Percent Control
PKNB(M.tuberculosis) = PKNB(M.tuberculosis) (Mycobacterium tuberculosis, UniProt P9WI81); assay: DiscoverX KINOMEscan kinase profiling; type: binding; conditions: kinase PKNB(M.tuberculosis) (Entrez pknB); compound concentration 1000 nM; read-out: Percent Control
RET = RET (Homo sapiens, UniProt P07949); assay: KINOMEscan: RET; type: binding; conditions: 100 nM, read-out: Percent Control
TBK1 = TBK1 (Homo sapiens, UniProt Q9UHD2); assay: KINOMEscan: TBK1; type: binding; conditions: 100 nM, read-out: Percent Control
VEGFR2 = VEGFR2 (Homo sapiens, UniProt P35968); assay: KINOMEscan: VEGFR2; type: binding; conditions: 100 nM, read-out: Percent Control
AKT3 = AKT3 (Homo sapiens, UniProt Q9Y243); assay: KINOMEscan: AKT3; type: binding; conditions: 1000 nM, read-out: Percent Control
ALK = ALK (Homo sapiens, UniProt Q9UM73); assay: KINOMEscan: ALK; type: binding; conditions: 1000 nM, read-out: Percent Control
CAMK2D = CAMK2D (Homo sapiens, UniProt Q13557); assay: KINOMEscan: CAMK2D; type: binding; conditions: 1000 nM, read-out: Percent Control
CDK11 = CDK11 (Homo sapiens, UniProt Q9BWU1); assay: KINOMEscan: CDK11; type: binding; conditions: 1000 nM, read-out: Percent Control
CDK2 = CDK2 (Homo sapiens, UniProt P24941); assay: KINOMEscan: CDK2; type: binding; conditions: 1000 nM, read-out: Percent Control
CHEK2 = CHEK2 (Homo sapiens, UniProt O96017); assay: KINOMEscan: CHEK2; type: binding; conditions: 1000 nM, read-out: Percent Control
CLK1 = CLK1 (Homo sapiens, UniProt P49759); assay: KINOMEscan: CLK1; type: binding; conditions: 1000 nM, read-out: Percent Control
CLK2 = CLK2 (Homo sapiens, UniProt P49760); assay: KINOMEscan: CLK2; type: binding; conditions: 1000 nM, read-out: Percent Control
CLK4 = CLK4 (Homo sapiens, UniProt Q9HAZ1); assay: KINOMEscan: CLK4; type: binding; conditions: 1000 nM, read-out: Percent Control
CSNK1A1 = CSNK1A1 (Homo sapiens, UniProt P48729); assay: KINOMEscan: CSNK1A1; type: binding; conditions: 1000 nM, read-out: Percent Control
CSNK1E = CSNK1E (Homo sapiens, UniProt P49674); assay: KINOMEscan: CSNK1E; type: binding; conditions: 1000 nM, read-out: Percent Control
DCAMKL2 = DCAMKL2 (Homo sapiens, UniProt Q8N568); assay: KINOMEscan: DCAMKL2; type: binding; conditions: 1000 nM, read-out: Percent Control
DMPK2 = DMPK2 (Homo sapiens, UniProt Q6DT37); assay: KINOMEscan: DMPK2; type: binding; conditions: 1000 nM, read-out: Percent Control
ERN1 = ERN1 (Homo sapiens, UniProt O75460); assay: KINOMEscan: ERN1; type: binding; conditions: 1000 nM, read-out: Percent Control
FLT1 = FLT1 (Homo sapiens, UniProt P17948); assay: KINOMEscan: FLT1; type: binding; conditions: 1000 nM, read-out: Percent Control
FLT3(D835H) = FLT3(D835H) (Homo sapiens, UniProt P36888, D835H); assay: KINOMEscan: FLT3(D835H); type: binding; conditions: 1000 nM, read-out: Percent Control
FLT3(ITD) = assay: KINOMEscan: FLT3(ITD); type: binding, human; conditions: 1000 nM
FLT3(K663Q) = FLT3(K663Q) (Homo sapiens, UniProt P36888, K663Q); assay: KINOMEscan: FLT3(K663Q); type: binding; conditions: 1000 nM, read-out: Percent Control
GRK2 = GRK2 (Homo sapiens, UniProt P25098); assay: KINOMEscan: GRK2; type: binding; conditions: 1000 nM, read-out: Percent Control
HIPK4 = HIPK4 (Homo sapiens, UniProt Q8NE63); assay: KINOMEscan: HIPK4; type: binding; conditions: 1000 nM, read-out: Percent Control
MAP3K1 = MAP3K1 (Homo sapiens, UniProt Q13233); assay: KINOMEscan: MAP3K1; type: binding; conditions: 1000 nM, read-out: Percent Control
MELK = MELK (Homo sapiens, UniProt Q14680); assay: KINOMEscan: MELK; type: binding; conditions: 1000 nM, read-out: Percent Control

ALK, sequence (Q9UM73 19-1620): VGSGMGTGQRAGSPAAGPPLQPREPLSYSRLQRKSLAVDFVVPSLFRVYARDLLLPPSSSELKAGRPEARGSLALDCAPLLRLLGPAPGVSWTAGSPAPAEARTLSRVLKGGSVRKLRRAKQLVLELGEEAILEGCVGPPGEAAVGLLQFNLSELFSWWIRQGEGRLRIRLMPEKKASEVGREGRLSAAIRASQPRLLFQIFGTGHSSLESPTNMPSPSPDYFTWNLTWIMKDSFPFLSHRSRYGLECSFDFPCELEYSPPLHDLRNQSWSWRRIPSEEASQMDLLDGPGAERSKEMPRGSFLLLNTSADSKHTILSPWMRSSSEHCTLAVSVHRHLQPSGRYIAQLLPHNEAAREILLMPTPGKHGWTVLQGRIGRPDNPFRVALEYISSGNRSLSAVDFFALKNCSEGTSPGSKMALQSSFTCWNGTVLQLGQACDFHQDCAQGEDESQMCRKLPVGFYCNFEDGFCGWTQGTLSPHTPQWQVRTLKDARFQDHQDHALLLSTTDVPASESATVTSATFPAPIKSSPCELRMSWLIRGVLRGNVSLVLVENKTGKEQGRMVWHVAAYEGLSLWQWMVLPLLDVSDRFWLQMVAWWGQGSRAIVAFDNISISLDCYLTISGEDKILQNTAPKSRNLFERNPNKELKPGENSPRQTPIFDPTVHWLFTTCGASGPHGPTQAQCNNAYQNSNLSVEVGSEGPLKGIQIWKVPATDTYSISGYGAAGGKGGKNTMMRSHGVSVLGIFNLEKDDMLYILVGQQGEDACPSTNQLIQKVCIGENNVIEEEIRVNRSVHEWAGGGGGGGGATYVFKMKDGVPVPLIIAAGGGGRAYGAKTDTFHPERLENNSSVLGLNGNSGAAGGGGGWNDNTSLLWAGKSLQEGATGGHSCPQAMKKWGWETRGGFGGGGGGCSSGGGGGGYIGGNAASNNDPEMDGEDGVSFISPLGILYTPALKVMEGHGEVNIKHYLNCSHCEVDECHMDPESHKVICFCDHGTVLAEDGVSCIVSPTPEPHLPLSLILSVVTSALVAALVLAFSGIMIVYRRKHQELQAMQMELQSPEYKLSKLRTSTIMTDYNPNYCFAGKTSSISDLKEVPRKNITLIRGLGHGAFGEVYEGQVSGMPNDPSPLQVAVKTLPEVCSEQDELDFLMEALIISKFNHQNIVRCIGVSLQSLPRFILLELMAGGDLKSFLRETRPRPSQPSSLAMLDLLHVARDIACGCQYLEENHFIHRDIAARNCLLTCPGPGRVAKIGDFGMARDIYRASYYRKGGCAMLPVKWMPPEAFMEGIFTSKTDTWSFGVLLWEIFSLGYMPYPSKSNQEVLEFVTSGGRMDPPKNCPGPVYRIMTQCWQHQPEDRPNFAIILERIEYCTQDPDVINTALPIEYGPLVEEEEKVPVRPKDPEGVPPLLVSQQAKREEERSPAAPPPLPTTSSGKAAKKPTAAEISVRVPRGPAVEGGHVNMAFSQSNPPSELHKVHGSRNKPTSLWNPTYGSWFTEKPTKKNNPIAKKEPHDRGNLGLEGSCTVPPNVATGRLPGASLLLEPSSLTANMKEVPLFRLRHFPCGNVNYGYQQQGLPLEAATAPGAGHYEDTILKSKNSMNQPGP
DMPK2, sequence (Q6DT37 whole entry): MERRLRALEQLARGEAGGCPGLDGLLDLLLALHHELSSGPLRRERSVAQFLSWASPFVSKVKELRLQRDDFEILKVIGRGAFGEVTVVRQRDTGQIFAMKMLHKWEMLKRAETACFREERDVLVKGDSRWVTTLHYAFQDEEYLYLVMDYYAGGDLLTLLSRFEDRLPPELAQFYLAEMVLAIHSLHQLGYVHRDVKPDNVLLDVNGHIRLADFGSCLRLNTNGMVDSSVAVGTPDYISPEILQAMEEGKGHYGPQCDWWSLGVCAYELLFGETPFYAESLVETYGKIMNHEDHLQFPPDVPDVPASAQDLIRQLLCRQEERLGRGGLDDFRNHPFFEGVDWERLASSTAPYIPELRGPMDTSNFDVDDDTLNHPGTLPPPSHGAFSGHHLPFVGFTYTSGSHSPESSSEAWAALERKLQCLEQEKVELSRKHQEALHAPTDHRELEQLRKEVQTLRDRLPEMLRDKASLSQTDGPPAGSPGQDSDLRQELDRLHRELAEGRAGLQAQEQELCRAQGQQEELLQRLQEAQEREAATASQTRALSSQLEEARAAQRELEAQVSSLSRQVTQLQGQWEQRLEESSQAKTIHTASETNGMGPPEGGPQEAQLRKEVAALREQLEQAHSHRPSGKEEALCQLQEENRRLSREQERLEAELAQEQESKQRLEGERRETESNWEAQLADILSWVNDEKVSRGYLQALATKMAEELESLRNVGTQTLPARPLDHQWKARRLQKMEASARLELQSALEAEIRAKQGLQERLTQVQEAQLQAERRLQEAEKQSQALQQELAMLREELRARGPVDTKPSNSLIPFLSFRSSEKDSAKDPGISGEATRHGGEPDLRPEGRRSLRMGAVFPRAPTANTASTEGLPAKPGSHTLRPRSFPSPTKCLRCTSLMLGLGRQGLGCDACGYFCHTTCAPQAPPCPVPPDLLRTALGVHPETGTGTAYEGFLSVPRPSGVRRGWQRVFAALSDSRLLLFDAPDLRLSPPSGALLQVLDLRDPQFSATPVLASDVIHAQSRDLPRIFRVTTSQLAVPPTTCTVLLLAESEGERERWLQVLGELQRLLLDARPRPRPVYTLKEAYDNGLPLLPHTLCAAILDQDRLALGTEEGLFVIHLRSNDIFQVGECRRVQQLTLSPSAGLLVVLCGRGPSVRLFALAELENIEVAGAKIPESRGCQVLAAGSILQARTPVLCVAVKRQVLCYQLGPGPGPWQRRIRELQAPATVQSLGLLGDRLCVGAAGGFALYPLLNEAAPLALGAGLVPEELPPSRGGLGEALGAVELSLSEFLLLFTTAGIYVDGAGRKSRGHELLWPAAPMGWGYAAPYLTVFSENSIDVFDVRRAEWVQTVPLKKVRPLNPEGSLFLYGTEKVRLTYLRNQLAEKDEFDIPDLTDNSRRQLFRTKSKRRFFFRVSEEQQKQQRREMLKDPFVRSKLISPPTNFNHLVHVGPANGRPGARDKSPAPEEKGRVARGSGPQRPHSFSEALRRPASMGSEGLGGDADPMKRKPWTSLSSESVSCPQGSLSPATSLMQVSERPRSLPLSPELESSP
CHEK2, sequence (O96017 whole entry): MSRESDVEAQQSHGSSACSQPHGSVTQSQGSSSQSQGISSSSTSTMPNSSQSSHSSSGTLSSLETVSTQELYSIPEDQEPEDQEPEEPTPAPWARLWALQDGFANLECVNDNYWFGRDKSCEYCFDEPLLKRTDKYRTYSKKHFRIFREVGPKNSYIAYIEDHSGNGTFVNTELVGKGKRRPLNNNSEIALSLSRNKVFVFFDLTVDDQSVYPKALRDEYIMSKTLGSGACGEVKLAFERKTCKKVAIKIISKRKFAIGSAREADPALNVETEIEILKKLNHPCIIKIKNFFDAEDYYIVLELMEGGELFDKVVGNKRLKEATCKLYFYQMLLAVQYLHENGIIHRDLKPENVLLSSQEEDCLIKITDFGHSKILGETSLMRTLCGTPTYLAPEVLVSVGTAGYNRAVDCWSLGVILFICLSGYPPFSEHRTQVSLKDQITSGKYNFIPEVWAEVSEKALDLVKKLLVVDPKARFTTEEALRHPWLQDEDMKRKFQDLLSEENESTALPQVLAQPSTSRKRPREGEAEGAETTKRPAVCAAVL
RET, sequence (P07949 29-1114): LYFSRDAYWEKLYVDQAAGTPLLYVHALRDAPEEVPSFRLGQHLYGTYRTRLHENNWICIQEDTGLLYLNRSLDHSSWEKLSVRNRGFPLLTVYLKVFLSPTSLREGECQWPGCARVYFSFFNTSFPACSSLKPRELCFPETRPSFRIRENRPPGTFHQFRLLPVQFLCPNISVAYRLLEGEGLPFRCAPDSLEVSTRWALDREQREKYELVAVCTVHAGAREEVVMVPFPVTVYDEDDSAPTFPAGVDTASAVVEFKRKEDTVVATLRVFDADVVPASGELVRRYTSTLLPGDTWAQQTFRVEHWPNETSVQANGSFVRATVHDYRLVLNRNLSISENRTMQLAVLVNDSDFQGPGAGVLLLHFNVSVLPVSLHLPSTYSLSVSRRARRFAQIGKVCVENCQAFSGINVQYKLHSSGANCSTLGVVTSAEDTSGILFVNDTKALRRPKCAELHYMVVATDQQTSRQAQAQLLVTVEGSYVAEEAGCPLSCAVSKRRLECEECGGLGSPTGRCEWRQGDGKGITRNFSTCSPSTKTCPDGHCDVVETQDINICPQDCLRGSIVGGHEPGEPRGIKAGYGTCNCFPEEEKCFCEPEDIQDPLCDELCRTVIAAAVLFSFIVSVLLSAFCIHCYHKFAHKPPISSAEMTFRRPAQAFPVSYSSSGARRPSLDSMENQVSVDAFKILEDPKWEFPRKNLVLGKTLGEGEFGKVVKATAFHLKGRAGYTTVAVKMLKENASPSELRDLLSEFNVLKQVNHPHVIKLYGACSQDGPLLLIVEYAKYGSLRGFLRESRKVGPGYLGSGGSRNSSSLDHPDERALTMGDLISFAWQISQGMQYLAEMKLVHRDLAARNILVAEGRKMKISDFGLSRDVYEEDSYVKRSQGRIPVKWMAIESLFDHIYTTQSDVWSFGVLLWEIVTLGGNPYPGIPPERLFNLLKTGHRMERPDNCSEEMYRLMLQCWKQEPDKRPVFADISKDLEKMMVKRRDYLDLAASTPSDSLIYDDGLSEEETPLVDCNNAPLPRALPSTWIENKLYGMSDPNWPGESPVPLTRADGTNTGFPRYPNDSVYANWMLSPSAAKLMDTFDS
CSNK1A1, sequence (P48729 whole entry): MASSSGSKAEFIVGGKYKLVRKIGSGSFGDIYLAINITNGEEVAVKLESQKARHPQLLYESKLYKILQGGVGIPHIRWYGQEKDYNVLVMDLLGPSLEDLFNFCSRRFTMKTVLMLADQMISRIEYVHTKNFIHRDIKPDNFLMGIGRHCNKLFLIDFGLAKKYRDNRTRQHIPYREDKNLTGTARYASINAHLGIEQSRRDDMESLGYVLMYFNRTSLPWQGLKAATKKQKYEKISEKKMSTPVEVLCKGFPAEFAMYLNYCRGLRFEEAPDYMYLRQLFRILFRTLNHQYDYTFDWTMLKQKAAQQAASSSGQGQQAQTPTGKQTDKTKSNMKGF

In the case of `COc1cc(F)ccc1-c1cc(Nc2cc(CS(C)(=N)=O)ccn2)ncc1F` (stereo not drawn) [VIP152], the “potency versus the other inhibitors” value [1] is reported as “higher potency”, the inhibition at 10 µM (Bradykinin B2) is reported as 9% and the inhibition at 10 µM (Muscarinic M2) is reported as -5%. For the same molecule, the inhibition at 10 µM (Muscarinic M3) was 3%, the “% Inh.” value (Nicotinic Acetylcholine) was -9% and the inhibition at 10 µM (Opiate μ(OP3, MOP)) was 8%. The remaining binding at 0.1 µM (PFCDPK1(P.falciparum)) was 97%, the remaining binding at 1 µM (PKNB(M.tuberculosis)) was 100% and the remaining binding at 0.1 µM (RET) was 100%. It also gave a remaining binding at 0.1 µM (TBK1) of 62%, a remaining binding at 0.1 µM (VEGFR2) of 89% and a remaining binding at 1 µM (AKT3) of 98%. The remaining binding at 1 µM (ALK) was 92%, the remaining binding at 1 µM (CAMK2D) was 69% and the remaining binding at 1 µM (CDK11) was 100%. It also gave a remaining binding at 1 µM (CDK2) of 51%, a remaining binding at 1 µM (CHEK2) of 77% and a remaining binding at 1 µM (CLK1) of 71%. The remaining binding at 1 µM (CLK2) was 82%, the remaining binding at 1 µM (CLK4) was 88% and the remaining binding at 1 µM (CSNK1A1) was 95%. The remaining binding at 1 µM (CSNK1E) was 89%, the remaining binding at 1 µM (DCAMKL2) was 96% and the remaining binding at 1 µM (DMPK2) was 88%. The remaining binding at 1 µM (ERN1) was 86%, the remaining binding at 1 µM (FLT1) was 86% and the remaining binding at 1 µM (FLT3(D835H)) was 57%. For the same molecule, the “Percent Control” value (FLT3(ITD)) was 87%, the remaining binding at 1 µM (FLT3(K663Q)) was 80% and the remaining binding at 1 µM (GRK2) was 98%. The remaining binding at 1 µM (HIPK4) was 68%, the remaining binding at 1 µM (MAP3K1) was 78% and the remaining binding at 1 µM (MELK) was 96%.
